From ChEMBL document CHEMBL1201862, “PubChem BioAssay data set” (2004)
The source made the active and inactive calls.

Assays:
[1] = HepG2 cell cytotoxicity, dose response, cytotoxicity control, plate reader, cherry-pick, antagonist series (AID 743416); assay type: functional, cell-based
[2] = LGR2 antagonists, dose response, cell-based, HEK293, CRE-luciferase reporter, cherry pick, set 2 (AID 743343); assay type: functional;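 note: transfected cells were stimulated with diluted bursicon conditioned medium after compound addition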
[3] = biological target: Neurotensin receptor type 1 (Homo sapiens, UniProt P30989); assay type: functional;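 note: Image-based confirmatory dose-response assay measuring agonist activity at NTR1; NTR1-expressing U2OS osteosarcoma cells imaged for beta-arrestin GFP spot formation; agonist potency where compounds increase beta-arrestin recruitment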
[4] = A549 cell cytotoxicity, dose response, cytotoxicity control, plate reader, cherry-pick, antagonist series (AID 743412); assay type: functional, cell-based
[5] = ADAM10 inhibitors, peptide cleavage, dose response, biochemical, QFRET (AID 743254);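 note: ADAM10 enzyme with the DM2 quenched FRET peptide as substrate; EDANS fluorescence gain as the protease cuts the substrate; inhibitor potency against ADAM10 proteolytic activity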
cells = assay type: functional
[6] = HepG2 cell cytotoxicity, dose response, cytotoxicity control for non-replicating M. tuberculosis project (AID 489018); assay type: functional; details: Mycobacterium tuberculosis
[7] = microbe, parasite or virus in culture; assay type: functional; details: Mycobacterium tuberculosis
[8] = biological target: T1, Calpain-2 catalytic subunit (Sus scrofa, UniProt P43367); assay: pig calpain II inhibitor potency, dose response, biochemical, fluorogenic peptide substrate (AID 1420); assay type: functional
T1 sequence (P43367 whole entry): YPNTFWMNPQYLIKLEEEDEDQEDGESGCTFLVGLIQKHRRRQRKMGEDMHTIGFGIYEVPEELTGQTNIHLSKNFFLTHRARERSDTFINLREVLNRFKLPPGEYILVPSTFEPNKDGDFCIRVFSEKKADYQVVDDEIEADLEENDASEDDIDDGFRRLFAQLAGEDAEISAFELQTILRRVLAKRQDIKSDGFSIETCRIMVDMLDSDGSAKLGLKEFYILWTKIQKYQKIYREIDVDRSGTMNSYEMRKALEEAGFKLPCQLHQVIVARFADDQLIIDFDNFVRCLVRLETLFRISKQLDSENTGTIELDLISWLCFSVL

[9] = Vero E6 cell cytotoxicity, dose response, cytotoxicity control for non-replicating M. tuberculosis project, secondary assay (AID 492998); assay type: functional, VeroE6; details: Vero C1008
[10] = biological target: T2, Microphthalmia-associated transcription factor (Homo sapiens, UniProt O75030); assay: TRPM1 promoter luciferase signal decrease, dose response, MITF inhibitor project, cell-based, SK-MEL-5, cherry-picked, set 3 (AID 493073); assay type: functional
T2 sequence (O75030 whole entry): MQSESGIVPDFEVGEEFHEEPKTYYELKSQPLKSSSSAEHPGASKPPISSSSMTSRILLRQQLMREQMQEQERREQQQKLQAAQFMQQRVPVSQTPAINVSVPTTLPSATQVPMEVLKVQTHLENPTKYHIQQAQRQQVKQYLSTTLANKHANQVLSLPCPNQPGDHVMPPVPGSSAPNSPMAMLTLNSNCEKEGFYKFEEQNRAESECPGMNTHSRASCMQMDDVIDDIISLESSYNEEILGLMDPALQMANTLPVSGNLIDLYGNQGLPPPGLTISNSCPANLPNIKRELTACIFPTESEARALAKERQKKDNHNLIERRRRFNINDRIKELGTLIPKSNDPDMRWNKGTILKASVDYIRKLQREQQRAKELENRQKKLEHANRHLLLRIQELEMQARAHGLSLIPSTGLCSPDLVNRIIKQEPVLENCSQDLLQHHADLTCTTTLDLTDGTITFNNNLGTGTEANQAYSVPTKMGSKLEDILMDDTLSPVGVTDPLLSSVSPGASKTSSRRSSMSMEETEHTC

A-375 = assay: A375 melanoma cell viability reduction, dose response, counter-screen for MITF modulator project, cherry-pick samples, set 2 (AID 540335); assay type: functional, cell-based; details: Homo sapiens
[11] = THP-1 cell cytotoxicity, dose response, cytotoxicity control for non-replicating M. tuberculosis project (AID 489025); assay type: functional
[12] = non-specific cell cytotoxicity, dose response, cytotoxicity control for PAX8 inhibitor project, plate reader, dry powder samples (AID 743021); assay type: functional, cell-based
[13] = biological target: Disintegrin and metalloproteinase domain-containing protein 17 (Homo sapiens, UniProt P78536); assay: ADAM17 protease inhibitors, dose response, counter-screen for ADAM10 exosite inhibitor project, biochemical, quenched FRET substrate (AID 743253)
[14] = HEK293 cell cytotoxicity, dose response, cytotoxicity control, plate reader, cherry-picked samples (AID 743446); assay type: functional, cell-based
[15] = MC4R antagonists, dose response, counter-screen for LGR2 antagonist project, cell-based, plate reader, cherry pick (AID 743444); assay type: functional;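 note: transfected HEK 293 cells stimulated with alpha-MSH peptide; potency of inhibitors of the alpha-MSH evoked signal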
Paired box protein Pax-8 = Paired box protein Pax-8 (Homo sapiens, UniProt Q06710); assay: inhibitors of PAX8-driven TPO luciferase reporter, dose response, RMG-I cells, cherry-pick (AID 687027); assay type: functional, cell-based;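 note: luciferase reporter driven by Pax8 target thyroperoxidase promoter measured by SteadyGlo luminescence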
[16] = Luminescence Cell-Based Dose Retest to Confirm Inhibitors of Cancer Stem Cells. [Related pubchem assays (depositor defined):AID2717, AID2721]; assay type: functional; details: Homo sapiens
Prothrombin = Prothrombin (Homo sapiens, UniProt P00734); assay: Thrombin 1536 HTS Dose Response Confirmation. [Related pubchem assays: 1046 (Thrombin 1536 HTS; hits were confirmed in this assay)]; assay type: functional
[17] = biological target: T3, Voltage-dependent T-type calcium channel subunit alpha-1H (Homo sapiens, UniProt O95180); assay: Inhibitors of T-Type Calcium Channels. [Related pubchem assays (depositor defined):AID449739, AID463087, AID489005, AID493041, AID504579, AID504584, AID504619, AID504628]; assay type: functional
Coagulation factor XII = biological target: T4, Coagulation factor XII (Homo sapiens, UniProt P00748); assay type: functional;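 note: activated factor XIIa alpha cleaving a fluorogenic AMC peptide substrate; inhibitor potency from loss of enzyme activity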
T4 sequence (P00748 whole entry): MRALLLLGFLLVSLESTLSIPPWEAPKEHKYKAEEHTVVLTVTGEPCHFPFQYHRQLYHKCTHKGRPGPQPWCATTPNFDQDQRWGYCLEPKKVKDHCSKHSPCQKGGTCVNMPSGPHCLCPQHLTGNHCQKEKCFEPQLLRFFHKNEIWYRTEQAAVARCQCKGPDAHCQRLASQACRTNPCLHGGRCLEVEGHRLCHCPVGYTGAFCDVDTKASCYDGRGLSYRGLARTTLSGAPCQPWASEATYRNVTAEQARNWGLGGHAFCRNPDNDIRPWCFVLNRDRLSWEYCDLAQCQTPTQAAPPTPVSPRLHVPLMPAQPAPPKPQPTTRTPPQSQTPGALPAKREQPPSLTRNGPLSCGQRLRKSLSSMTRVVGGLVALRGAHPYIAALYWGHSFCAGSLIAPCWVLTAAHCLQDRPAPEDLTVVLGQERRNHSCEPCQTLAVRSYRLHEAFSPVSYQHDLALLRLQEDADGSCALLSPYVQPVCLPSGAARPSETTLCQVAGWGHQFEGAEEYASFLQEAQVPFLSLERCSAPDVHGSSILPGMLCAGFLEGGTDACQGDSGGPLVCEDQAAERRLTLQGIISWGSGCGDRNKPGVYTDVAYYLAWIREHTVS

Protein skinhead-1 = biological target: T5, Protein skinhead-1 (Caenorhabditis elegans, UniProt P34707); assay type: functional
T5 sequence (P34707 whole entry): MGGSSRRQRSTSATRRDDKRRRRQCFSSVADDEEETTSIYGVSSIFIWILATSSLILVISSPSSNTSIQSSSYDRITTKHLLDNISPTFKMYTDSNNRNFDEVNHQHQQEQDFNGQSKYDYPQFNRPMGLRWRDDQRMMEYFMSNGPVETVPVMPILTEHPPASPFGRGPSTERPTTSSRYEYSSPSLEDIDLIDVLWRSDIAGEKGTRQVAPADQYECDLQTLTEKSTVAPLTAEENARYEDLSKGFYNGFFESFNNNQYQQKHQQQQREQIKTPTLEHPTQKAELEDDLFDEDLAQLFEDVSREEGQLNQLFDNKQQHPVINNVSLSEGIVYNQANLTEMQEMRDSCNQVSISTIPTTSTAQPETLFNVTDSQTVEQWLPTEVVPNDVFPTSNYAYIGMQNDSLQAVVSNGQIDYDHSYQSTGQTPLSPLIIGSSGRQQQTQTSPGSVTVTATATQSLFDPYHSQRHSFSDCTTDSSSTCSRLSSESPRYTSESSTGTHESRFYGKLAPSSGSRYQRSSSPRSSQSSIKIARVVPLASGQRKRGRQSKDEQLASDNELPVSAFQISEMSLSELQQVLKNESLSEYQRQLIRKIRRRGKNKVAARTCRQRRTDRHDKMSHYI

[18] = biological target: T6, Short transient receptor potential channel 4 (Mus musculus, UniProt Q9QUQ5); assay: mouse TRPC4 channel inhibitors, dose response, cell-based, HEK293 TRPC4/mu-opioid, Fluo-4 calcium (AID 434942); assay type: functional;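 note: potency of inhibitors blocking the TRPC4 calcium response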
T6 sequence (Q9QUQ5 whole entry): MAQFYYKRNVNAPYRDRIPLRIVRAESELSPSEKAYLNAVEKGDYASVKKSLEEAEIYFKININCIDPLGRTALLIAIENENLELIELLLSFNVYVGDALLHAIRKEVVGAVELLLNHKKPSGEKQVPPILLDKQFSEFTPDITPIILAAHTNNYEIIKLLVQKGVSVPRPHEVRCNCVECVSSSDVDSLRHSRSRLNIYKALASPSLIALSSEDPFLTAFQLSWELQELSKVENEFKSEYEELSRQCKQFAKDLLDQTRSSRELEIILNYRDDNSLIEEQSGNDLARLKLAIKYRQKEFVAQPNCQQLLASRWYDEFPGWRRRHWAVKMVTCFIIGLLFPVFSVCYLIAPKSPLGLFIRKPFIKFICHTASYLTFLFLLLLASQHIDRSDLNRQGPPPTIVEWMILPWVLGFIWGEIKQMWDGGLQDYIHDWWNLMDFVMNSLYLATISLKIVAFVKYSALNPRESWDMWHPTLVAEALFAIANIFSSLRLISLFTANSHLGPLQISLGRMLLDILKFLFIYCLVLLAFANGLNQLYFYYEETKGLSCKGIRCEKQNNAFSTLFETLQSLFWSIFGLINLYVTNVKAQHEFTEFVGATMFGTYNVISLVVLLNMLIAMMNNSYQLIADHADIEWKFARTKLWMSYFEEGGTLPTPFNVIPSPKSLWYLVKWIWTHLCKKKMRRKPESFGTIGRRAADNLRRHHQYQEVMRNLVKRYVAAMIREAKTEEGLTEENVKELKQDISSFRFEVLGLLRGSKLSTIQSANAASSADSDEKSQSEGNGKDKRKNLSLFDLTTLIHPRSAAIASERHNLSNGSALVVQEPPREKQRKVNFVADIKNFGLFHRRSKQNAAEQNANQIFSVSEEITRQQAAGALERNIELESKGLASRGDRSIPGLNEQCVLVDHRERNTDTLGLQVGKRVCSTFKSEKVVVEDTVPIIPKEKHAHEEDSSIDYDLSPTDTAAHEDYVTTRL

[19] = biological target: T3, Voltage-dependent T-type calcium channel subunit alpha-1H; assay type: functional
Caspase-3 = biological target: T7, Caspase-3 (Homo sapiens, UniProt P42574); assay: procaspase-3 activation potency of dual hits, dose response, counter-screen for dual procaspase-3/7 activator project, biochemical, absorbance, PC-3 D3A mutant (AID 504328)
T7 sequence (P42574 whole entry): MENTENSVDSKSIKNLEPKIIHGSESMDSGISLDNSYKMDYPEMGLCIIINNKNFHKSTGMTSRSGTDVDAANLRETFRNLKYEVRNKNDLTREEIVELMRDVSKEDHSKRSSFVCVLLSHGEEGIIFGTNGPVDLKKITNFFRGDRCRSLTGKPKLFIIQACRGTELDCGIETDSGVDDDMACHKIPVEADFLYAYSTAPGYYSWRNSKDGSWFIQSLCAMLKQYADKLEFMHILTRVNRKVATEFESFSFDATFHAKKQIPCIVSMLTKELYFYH

Caspase-7 = Caspase-7 (Homo sapiens, UniProt P55210); assay: procaspase-7 activators, dose response, dual procaspase-3/-7 activator project, biochemical, absorbance, human (AID 504330)

T3 sequence (O95180 whole entry): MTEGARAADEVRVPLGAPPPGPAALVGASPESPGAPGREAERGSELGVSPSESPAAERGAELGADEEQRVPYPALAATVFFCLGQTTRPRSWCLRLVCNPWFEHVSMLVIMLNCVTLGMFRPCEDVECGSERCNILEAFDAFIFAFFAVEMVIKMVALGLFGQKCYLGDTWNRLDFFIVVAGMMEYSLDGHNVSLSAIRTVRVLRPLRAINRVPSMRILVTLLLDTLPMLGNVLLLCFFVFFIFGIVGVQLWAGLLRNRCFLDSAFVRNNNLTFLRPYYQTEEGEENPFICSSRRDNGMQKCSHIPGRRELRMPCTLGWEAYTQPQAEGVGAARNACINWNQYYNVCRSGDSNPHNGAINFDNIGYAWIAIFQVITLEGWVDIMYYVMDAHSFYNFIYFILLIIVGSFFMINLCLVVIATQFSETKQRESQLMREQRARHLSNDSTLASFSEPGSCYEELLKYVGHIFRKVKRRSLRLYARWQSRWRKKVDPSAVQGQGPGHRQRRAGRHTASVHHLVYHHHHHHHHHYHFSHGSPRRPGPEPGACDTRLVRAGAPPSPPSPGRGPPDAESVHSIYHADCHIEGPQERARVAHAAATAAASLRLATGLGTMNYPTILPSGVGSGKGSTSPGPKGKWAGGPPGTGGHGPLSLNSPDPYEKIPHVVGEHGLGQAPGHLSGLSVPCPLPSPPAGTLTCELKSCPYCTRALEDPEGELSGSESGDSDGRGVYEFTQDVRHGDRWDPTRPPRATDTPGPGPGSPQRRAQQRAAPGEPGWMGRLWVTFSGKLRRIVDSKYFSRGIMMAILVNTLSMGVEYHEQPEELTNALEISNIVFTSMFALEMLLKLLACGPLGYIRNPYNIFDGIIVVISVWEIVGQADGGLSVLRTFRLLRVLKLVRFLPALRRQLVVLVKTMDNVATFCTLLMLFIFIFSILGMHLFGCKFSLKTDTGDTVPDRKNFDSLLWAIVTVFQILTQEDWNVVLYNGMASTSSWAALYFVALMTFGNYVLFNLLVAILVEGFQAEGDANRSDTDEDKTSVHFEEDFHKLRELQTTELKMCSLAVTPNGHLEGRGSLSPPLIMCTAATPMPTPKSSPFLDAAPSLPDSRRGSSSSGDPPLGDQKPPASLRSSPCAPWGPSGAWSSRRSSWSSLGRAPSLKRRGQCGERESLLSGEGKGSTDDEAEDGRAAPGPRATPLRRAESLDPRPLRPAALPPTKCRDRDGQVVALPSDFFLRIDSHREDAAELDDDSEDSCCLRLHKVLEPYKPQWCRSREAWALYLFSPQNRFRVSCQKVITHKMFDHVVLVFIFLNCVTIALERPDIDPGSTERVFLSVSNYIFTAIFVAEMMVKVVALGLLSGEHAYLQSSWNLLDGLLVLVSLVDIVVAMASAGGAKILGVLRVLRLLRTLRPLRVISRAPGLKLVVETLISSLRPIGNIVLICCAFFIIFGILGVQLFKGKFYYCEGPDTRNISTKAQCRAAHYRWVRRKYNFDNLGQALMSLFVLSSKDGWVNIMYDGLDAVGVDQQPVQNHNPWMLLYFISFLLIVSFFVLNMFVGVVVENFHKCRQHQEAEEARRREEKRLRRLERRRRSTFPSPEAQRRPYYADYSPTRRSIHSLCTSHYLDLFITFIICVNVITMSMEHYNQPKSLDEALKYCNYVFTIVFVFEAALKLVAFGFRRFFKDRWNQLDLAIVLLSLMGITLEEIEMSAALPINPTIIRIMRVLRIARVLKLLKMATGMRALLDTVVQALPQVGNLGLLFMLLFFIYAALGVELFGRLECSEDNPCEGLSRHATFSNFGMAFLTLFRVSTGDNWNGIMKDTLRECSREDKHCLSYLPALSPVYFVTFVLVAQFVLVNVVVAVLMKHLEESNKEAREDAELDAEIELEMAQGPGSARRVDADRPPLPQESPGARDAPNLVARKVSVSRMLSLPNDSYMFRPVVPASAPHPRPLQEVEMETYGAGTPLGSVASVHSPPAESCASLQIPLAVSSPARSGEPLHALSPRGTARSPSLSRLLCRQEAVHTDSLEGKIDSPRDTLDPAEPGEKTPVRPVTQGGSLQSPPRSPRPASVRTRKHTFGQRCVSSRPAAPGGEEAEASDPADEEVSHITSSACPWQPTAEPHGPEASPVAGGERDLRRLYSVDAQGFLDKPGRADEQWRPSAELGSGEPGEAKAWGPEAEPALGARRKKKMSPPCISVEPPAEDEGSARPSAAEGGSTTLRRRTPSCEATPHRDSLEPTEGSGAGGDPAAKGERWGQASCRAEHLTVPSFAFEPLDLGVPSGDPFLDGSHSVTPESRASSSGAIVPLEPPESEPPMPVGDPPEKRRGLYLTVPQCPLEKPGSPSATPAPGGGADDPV
Neurotensin receptor type 1, sequence (P30989 whole entry): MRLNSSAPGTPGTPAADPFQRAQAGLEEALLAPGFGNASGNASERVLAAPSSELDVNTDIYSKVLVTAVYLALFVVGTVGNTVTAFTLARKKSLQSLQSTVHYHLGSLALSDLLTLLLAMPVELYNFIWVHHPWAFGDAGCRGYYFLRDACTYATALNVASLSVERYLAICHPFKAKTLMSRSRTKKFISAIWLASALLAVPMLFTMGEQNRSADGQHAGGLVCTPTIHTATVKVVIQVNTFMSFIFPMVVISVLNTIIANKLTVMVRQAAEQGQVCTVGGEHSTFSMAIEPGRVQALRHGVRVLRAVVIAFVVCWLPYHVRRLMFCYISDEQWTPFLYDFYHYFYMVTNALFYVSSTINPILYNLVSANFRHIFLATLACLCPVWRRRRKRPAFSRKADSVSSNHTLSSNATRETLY
Disintegrin and metalloproteinase domain-containing protein 17, sequence (P78536 whole entry, the tested form may be a part): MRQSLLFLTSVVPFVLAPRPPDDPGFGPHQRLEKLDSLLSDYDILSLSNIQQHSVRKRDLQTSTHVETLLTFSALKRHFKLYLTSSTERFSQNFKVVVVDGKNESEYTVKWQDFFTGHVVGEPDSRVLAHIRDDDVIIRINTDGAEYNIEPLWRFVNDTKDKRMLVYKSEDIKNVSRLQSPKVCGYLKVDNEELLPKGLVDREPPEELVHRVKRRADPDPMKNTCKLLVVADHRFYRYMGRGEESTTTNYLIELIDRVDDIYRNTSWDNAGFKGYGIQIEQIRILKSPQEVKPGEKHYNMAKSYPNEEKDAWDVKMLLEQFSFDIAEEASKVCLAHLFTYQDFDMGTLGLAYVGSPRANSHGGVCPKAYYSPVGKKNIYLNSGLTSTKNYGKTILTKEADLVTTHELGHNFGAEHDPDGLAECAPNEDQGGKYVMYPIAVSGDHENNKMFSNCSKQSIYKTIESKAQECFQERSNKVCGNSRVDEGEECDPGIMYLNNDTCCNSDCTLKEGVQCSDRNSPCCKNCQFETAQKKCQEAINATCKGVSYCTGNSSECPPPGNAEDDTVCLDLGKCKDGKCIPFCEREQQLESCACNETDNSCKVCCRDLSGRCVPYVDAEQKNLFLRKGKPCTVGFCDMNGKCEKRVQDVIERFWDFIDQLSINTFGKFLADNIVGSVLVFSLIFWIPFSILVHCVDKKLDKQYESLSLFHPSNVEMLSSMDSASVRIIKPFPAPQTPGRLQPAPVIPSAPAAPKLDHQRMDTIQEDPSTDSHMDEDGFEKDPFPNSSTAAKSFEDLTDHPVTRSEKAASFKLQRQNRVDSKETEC
Paired box protein Pax-8, sequence (Q06710 whole entry): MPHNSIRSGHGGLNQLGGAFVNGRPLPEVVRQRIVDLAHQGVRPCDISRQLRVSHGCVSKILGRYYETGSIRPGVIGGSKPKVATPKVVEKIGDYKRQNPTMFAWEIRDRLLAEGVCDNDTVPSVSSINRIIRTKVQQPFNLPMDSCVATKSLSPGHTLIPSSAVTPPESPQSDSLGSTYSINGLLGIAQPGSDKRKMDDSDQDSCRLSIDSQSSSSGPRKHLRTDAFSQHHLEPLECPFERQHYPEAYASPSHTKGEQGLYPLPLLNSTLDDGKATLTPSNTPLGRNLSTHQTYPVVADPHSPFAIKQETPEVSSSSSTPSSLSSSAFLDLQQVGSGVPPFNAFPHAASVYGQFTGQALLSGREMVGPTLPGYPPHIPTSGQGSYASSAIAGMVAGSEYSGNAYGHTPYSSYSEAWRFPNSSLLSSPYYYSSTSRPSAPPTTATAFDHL

OC(CNCC(c1ccc(Cl)cc1Cl)c1c[nH]c2ccccc12)c1ccccc1 (configuration not stated)
11.4 µM (not active): IC50 [8]
inactive: IC50 [5] 13.4 µM | IC50 [13] > 69.5 µM
active: AC50 [1] 8.61 µM | AC50 [2] 19.2 µM | EC50 [3] 15.2 µM | AC50 [4] 8.71 µM | IC50 (cells) 12.3 µM | CC50 [6] 7.75 µM | CC50 [7] 6.04 µM | CC50 [9] 6.27 µM | AC50 [10] 14.7 µM | AC50 (A-375) 14.8 µM | CC50 [11] 6.38 µM | AC50 [12] 38.2 µM | AC50 [14] 14.2 µM | AC50 [15] 21.1 µM | AC50 (Paired box protein Pax-8) 11.2 µM | AC50 [16] 2.12 µM

COc1ccc(C(=O)Nc2nc(-c3cccs3)cs2)cc1
inactive: IC50 (Coagulation factor XII) > 50 µM | IC50 (Protein skinhead-1) 57.1 µM
active: IC50 (Prothrombin) 1.14 µM | EC50 [17] 1.1 µM | EC50 [18] 5.31 µM | EC50 [19] 1.08 µM

CCOC(=O)/C(C#N)=C/Nc1cc(OC)ccc1OC
inactive: EC50 (Caspase-3) > 85.3 µM | EC50 (Caspase-7) > 85.3 µM
